These compounds were tested on ATF4 (assay: Inhibition of ATF4, downstream factor of ISR, in HT-1080 cells, Western blot (FIG. 1)). Conditions: amino acid deficiency, compound 50 nM, 24 hours.
Type: cell-based, human
Procedure: <Experimental Example 5> Evaluation of Inhibitory Efficacy of ISR-Related Kinase GCN2 Under Amino Acid Deficiency Condition Using Western Blot
HT-1080 cells, a human fibrosarcoma cell line, were cultured in RPMI-1640 medium supplemented with 10% FBS, penicillin (penicillin; 100 IU/ml), and streptomycin (streptomycin; 100 μg/ml). Cells (1×10^6 cells/ml) were seeded onto 100 mm plates (polypropylene tissue culture plate) and incubated for 24 hours in a 37° C., 5% CO2 incubator before being used for experiments.
The following method was used to achieve amino acid deficiency conditions in cells. After 24 hours of cell culture, the cells were cultured in amino acids and L-glutamine-free RPMI-1640 medium supplemented with 10% FBS, penicillin (100 IU/ml), and streptomycin (100 μg/ml). After 24 hours of cell culture in RPMI-1640 without amino acids and L-glutamine, the compound prepared at a concentration of 50 nM was dispensed onto each plate and cultured for 24 hours in a 37° C., 5% CO2 incubator.
In order to measure the signal transduction inhibitory efficacy of GCN among the ISR-related kinases according to the present invention, the following experiment was performed using SDS-PAGE. The fibrosarcoma cell line HT-1080 cells cultured on plates as described above were washed with PBS after removing the culture medium. After removing PBS, the cells were lysed by adding a radio-immunoprecipitation assay buffer (RIPA buffer) containing 50 mM Tris (pH 7.4), 150 mM NaCl, 1% NP-40, 0.5% sodium deoxycholate, 2 mM sodium fluoride, 2 mM EDTA, 0.1% SDS, and a protease/phosphatase inhibitor cocktail to the plate. After centrifugation at 4° C., 13,000×g for 15 minutes, the protein in the upper layer was collected, and the protein concentration was measured at 562 nm using BCA (bicinchoninc acid) reagent, and the amount of protein in all samples was prepared at 20-50 μg.
After making the total volume the same using the sample buffer and RIPA buffer, it was heated at 97° C. for 5 minutes. Then, electrophoresis was performed on 8% or 12% SDS-PAGE at 80 V for 30 minutes and at 160 V for 1 hour and 30 minutes. After electrophoresis, the SDS-PAGE gel was transferred to an NC membrane (nitrocellulose membrane) at 90 V for 2 hours. The NC membrane was placed in TBST (tris buffer saline tween-20; 20 mM tris, 137 mM sodium chloride, 0.1% tween-20, pH 8.0) containing 5% non-fat skim milk, placed on a shaker, and reacted at room temperature for 1 hour.
Each primary antibody was diluted in TBST containing 5% non-fat skim milk, poured onto the NC membrane, and reacted at 4° C. for 24 hours. The membrane was washed three times for 10 minutes each with TBST. The secondary antibodies (anti-rabbit IgG and anti-mouse IgG labeled with horseradish peroxidase (HRP)) were diluted in TBST containing 5% non-fat skim milk and reacted with the membrane at room temperature for 1 hour. Upon completion of the reaction, the membrane was washed three times with TBST for 10 minutes each. Protein expression bands were detected by a chemiluminescence image analyzer (Image Quant LAS 500) after the ECL solution was reacted with the NC membrane.
FIG. 1 is a set of photographs confirming the mechanism proteins that react upon ISR activation, wherein the numbers correspond to example numbers of the present invention. […] They are also known to have an effect on increasing the expression of CHOP (GADD153), the most downstream factor of the mechanism. […] Thus, in addition to the activation of ISR by amino acid deficiency, a significant effect can be expected on the mechanism of inhibition of the activity of PERK, an ISR-related kinase, due to endoplasmic reticulum stress response.

Structure (SMILES) | inhibitory effect on ATF4 (FIG. 1)
COc1ncc(Br)cc1S(=O)(=O)Nc1ccc(F)c(-n2c(=O)c3cnc(N)nc3n(C)c2=O)c1F [Example 46, N-(3-(7-amino-1-methyl-2,4-dioxo-1,4-dihydropyrimido[4,5-d]pyrimidin-3(2H)-yl)-2,4-difluorophenyl)-5-bromo-2-methoxypyridine-3-sulfonamide] | excellent inhibitory effects
COc1ncc(Cl)cc1S(=O)(=O)Nc1ccc(F)c(-n2c(=O)c3cnc(N)nc3n(C)c2=O)c1F [Example 44, N-(3-(7-amino-1-methyl-2,4-dioxo-1,4-dihydropyrimido[4,5-d]pyrimidin-3(2H)-yl)-2,4-difluorophenyl)-5-chloro-2-methoxypyridine-3-sulfonamide] | excellent inhibitory effects
Nc1ncc2c(=O)n(-c3c(F)ccc(NS(=O)(=O)c4cccc5ccccc45)c3F)ccc2n1 [Example 29, N-(3-(2-amino-5-oxopirido[4,3-d]pyrimidin-6(5H)-yl)-2,4-difluorophenyl)naphthalene-1-sulfonamide] | excellent inhibitory effects
COc1ncc(Cl)cc1S(=O)(=O)Nc1ccc(F)c(-n2cc(C(F)F)c3nc(N)ncc3c2=O)c1F [Example 22, N-(3-(2-amino-8-(difluoromethyl)-5-oxopirido[4,3-d]pyrimidin-6(5H)-yl)-2,4-difluorophenyl)-5-chloro-2-methoxypyridine-3-sulfonamide] | excellent inhibitory effects
